According to US20240132431A1, “METHOD FOR ALKYLATING ACIDIC FUNCTIONAL GROUP” (Chugai Seiyaku Kabushiki Kaisha, priority 2021, published 2024):

Target: T1, Bcl-2 protein (Recombinant Human Bcl-2 Protein) (Homo sapiens, UniProt P10415)
T1 construct: purchased Novus NBP2-34889
Test: Binding evaluation of mixture library compounds to Bcl-2 using AS-MS (affinity selection mass spectrometry)
Details: for ASMS ratio (%) n = 1: replicate n = 1; for ASMS ratio (%) n = 1 / ASMS ratio (%) n = 2: ASMS Ratio(%)=(A−C)/B×100; for ASMS ratio (%) n = 2: replicate n = 2
In short: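 Pooled library of ~1200 compounds ([…] each, final) incubated with recombinant human Bcl-2 (20 μM final) in Tris-HCl pH 7.4, NaCl, Tween-20, DTT buffer, dark, 23° C., 1 h. Bound fraction recovered by SEC spin column, organic extraction, reversed-phase LC/MS. ASMS Ratio (%) = (A−C)/B×100 versus protein-free standard and SEC blank.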

[1] = AS-MS on the mixture of 1200 library compounds
[2] = AS-MS, mixture of 1200 compounds, Bcl-2

T1 sequence (P10415 whole entry): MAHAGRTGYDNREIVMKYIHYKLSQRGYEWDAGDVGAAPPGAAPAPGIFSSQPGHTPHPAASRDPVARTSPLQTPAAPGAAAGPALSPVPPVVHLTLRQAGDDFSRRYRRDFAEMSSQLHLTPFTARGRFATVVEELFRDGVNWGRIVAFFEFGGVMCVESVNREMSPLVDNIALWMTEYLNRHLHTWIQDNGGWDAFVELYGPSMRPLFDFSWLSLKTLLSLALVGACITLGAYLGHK

Molecule | ASMS ratio (%) (n = 1) | ASMS ratio (%) (n = 2) | ASMS ratio (%) n = 2 (AS-MS, mixture library, Bcl-2) | other results
CCOc1cccc(-c2csc(C(=O)N3CCN(c4ccc(C(=O)NS(=O)(=O)c5ccc(NCCSc6ccccc6)c(C(F)(F)F)c5)cc4)CC3)c2)c1 [B2R023-01, 4-[4-[4-(3-Ethoxyphenyl)thiophene-2-carbonyl]piperazin-1-yl]-N-[4-(2-phenylsulfanylethylamino)-3-(trifluoromethyl)phenyl]sulfonylbenzamide] | 0.0% | −15.5% |  | 
CCOc1cccc(-c2csc(C(=O)N3CCN(c4ccc(C(=O)NS(=O)(=O)CC56CC7CC(CC(C7)C5)C6)nn4)CC3)c2)c1 [B2A001-01, N-(1-Adamantylmethylsulfonyl)-6-[4-[4-(3-ethoxyphenyl)thiophene-2-carbonyl]piperazin-1-yl]pyridazine-3-carboxamide] |  |  | 0.0% | ASMS ratio (%) n = 1 (AS-MS, mixture library, Bcl-2): 0.0%
CCOc1cccc(-c2cc(CN3CCN(c4ccc(C(=O)NS(=O)(=O)c5ccc(NCCSc6ccccc6)c([N+](=O)[O-])c5)nn4)CC3)cc(OCC)c2)c1 [B2Q081-01, 6-[4-[[3-Ethoxy-5-(3-ethoxyphenyl)phenyl]methyl]piperazin-1-yl]-N-[3-nitro-4-(2-phenylsulfanylethylamino)phenyl]sulfonylpyridazine-3-carboxamide] |  |  | 0.6% | ASMS ratio (%) n = 1 (AS-MS, mixture library, Bcl-2): −4.8%
CCOc1cncc(-c2ccccc2CCC(=O)N2CCN(c3ccc(C(=O)NS(=O)(=O)CCC(F)(F)F)nn3)CC2)c1 [B2N012-01, 6-[4-[3-[2-(5-Ethoxypyridin-3-yl)phenyl]propanoyl]piperazin-1-yl]-N-(3,3,3-trifluoropropylsulfonyl)pyridazine-3-carboxamide] | 0.0% | 0.0% |  | 
CCOc1cncc(-c2ccccc2CN2CCN(c3ccc(C(=O)Nc4ccc(OC)cc4)nn3)CC2)c1 [B1O072-01, 6-[4-[[2-(5-Ethoxypyridin-3-yl)phenyl]methyl]piperazin-1-yl]-N-(4-methoxyphenyl)pyridazine-3-carboxamide] |  |  |  | ASMS ratio (%) n = 1 [1]: 4.1%; ASMS ratio (%) n = 2 [1]: 0.4%
CCOc1cccc(-c2ccc(C(C)N3CCN(c4ccc(C(=O)NS(=O)(=O)CC56CC7CC(CC(C7)C5)C6)cc4)CC3)c(F)c2)c1 (stereo not drawn) [B2A099-01, N-(1-Adamantylmethylsulfonyl)-4-[4-[1-[4-(3-ethoxyphenyl)-2-fluorophenyl]ethyl]piperazin-1-yl]benzamide] |  |  | 0.0% | ASMS ratio (%) n = 1 (AS-MS, mixture library, Bcl-2): 0.0%
CCOc1cccc(-c2cc(CN3CCN(c4ccc(C(=O)NS(=O)(=O)c5ccc(NCCSc6ccccc6)c([N+](=O)[O-])c5)nn4)CC3)cc(OC(C)C)c2)c1 [B2Q083-01, 6-[4-[[3-(3-Ethoxyphenyl)-5-propan-2-yloxyphenyl]methyl]piperazin-1-yl]-N-[3-nitro-4-(2-phenylsulfanylethylamino)phenyl]sulfonylpyridazine-3-carboxamide] |  |  | 0.0% | 
CCOc1cncc(-c2csc(C(=O)N3CCN(c4ccc(C(=O)NS(=O)(=O)CCC(F)(F)F)cc4)CC3)c2)c1 [B2N024-01, 4-[4-[4-(5-Ethoxypyridin-3-yl)thiophene-2-carbonyl]piperazin-1-yl]-N-(3,3,3-trifluoropropylsulfonyl)benzamide] | 0.0% | 0.0% |  | 
CCOc1cccc(-c2ccc(C(=O)N3CCN(c4ccc(C(=O)NS(=O)(=O)C(C)(C)C)cc4)CC3)cc2F)c1 [B2L027-01, N-tert-Butylsulfonyl-4-[4-[4-(3-ethoxyphenyl)-3-fluorobenzoyl]piperazin-1-yl]benzamide] | 0.0% | 0.0% |  | 
4-[4-[3-[2-(5-Ethoxypyridin-3-yl)phenyl]propanoyl]piperazin-1-yl]-N-propylbenzamide [B1M078-01] |  |  |  | ASMS ratio (%) n = 1 [2]: 0.0%; ASMS ratio (%) n = 2 [2]: 0.0%
CCOc1cccc(-c2ccc(C(=O)N3CCN(c4ccc(C(=O)NS(=O)(=O)CC56CC7CC(CC(C7)C5)C6)nn4)CC3)cc2C)c1 [B2A003-01, N-(1-Adamantylmethylsulfonyl)-6-[4-[4-(3-ethoxyphenyl)-3-methylbenzoyl]piperazin-1-yl]pyridazine-3-carboxamide] |  |  | 11.0% | ASMS ratio (%) n = 1 (AS-MS, mixture library, Bcl-2): 21.0%
6-[4-[3-[4-(3-Ethoxyphenyl)pyrazol-1-yl]-5-(trifluoromethyl)benzoyl]piperazin-1-yl]-N-propylpyridazine-3-carboxamide [B1M024-01] |  |  |  | ASMS ratio (%) n = 1 [2]: 0.0%; ASMS ratio (%) n = 2 [2]: 0.0%
CCOc1cccc(-c2csc(CN3CCN(c4ccc(C(=O)NS(=O)(=O)c5ccc(NCCSc6ccccc6)c(C(F)(F)F)c5)cc4)CC3)c2)c1 [B2R067-01, 4-[4-[[4-(3-Ethoxyphenyl)thiophen-2-yl]methyl]piperazin-1-yl]-N-[4-(2-phenylsulfanylethylamino)-3-(trifluoromethyl)phenyl]sulfonylbenzamide] | 8.0% | 0.0% |  | 
CCOc1cccc(-c2ccc(CN3CCN(c4ccc(C(=O)NCC56CC7CC(CC(C7)C5)C6)nn4)CC3)cc2C)c1 [B1A073-01, N-(1-Adamantylmethyl)-6-[4-[[4-(3-ethoxyphenyl)-3-methylphenyl]methyl]piperazin-1-yl]pyridazine-3-carboxamide] |  |  |  | ASMS ratio (%) n = 1 [2]: 3.2%; ASMS ratio (%) n = 2 [2]: −4.7%
CCOc1cncc(-c2cc(C(=O)N3CCN(c4ccc(C(=O)NCC(F)(F)F)cc4)CC3)cc(C(C)(C)C)c2)c1 [B1K038-01, 4-[4-[3-tert-Butyl-5-(5-ethoxypyridin-3-yl)benzoyl]piperazin-1-yl]-N-(2,2,2-trifluoroethyl)benzamide] |  |  |  | ASMS ratio (%) n = 1 [2]: 0.6%; ASMS ratio (%) n = 2 [2]: −1.8%
CCOc1cncc(-c2cc(C(=O)N3CCN(c4ccc(C(=O)Nc5ccc(OC)cc5)cc4)CC3)cc(C(F)(F)F)c2)c1 [B1O040-01, 4-[4-[3-(5-Ethoxypyridin-3-yl)-5-(trifluoromethyl)benzoyl]piperazin-1-yl]-N-(4-methoxyphenyl)benzamide] |  |  |  | ASMS ratio (%) n = 1 [1]: 1.8%; ASMS ratio (%) n = 2 [1]: 0.3%
CCOc1cccc(-c2cc(CN3CCN(c4ccc(C(=O)NS(=O)(=O)CCC(F)(F)F)cc4)CC3)cc(OC(C)C)c2)c1 [B2N057-01, 4-[4-[[3-(3-Ethoxyphenyl)-5-propan-2-yloxyphenyl]methyl]piperazin-1-yl]-N-(3,3,3-trifluoropropylsulfonyl)benzamide] | 0.0% | −1.8% |  | 
CCOc1cccc(-c2cc(CN3CCN(c4ccc(C(=O)N(C)CC56CC7CC(CC(C7)C5)C6)nn4)CC3)cc(C(F)(F)F)c2)c1 [B3A087-01, N-(1-Adamantylmethyl)-6-[4-[[3-(3-ethoxyphenyl)-5-(trifluoromethyl)phenyl]methyl]piperazin-1-yl]-N-methylpyridazine-3-carboxamide] |  |  |  | ASMS ratio (%) n = 1 [1]: 0.4%; ASMS ratio (%) n = 2 [1]: 1.4%
CCOc1cccc(-c2ccc(C(=O)N3CCN(c4ccc(C(=O)NS(=O)(=O)c5ccc(NCCSc6ccccc6)c(C(F)(F)F)c5)nn4)CC3)cc2F)c1 [B2R005-01, 6-[4-[4-(3-ethoxyphenyl)-3-fluorobenzoyl]piperazin-1-yl]-N-[4-(2-phenylsulfanylethylamino)-3-(trifluoromethyl)phenyl]sulfonylpyridazine-3-carboxamide] | 44.0% | 39.5% |  | 
CCOc1cncc(C#Cc2ccccc2C(=O)N2CCN(c3ccc(C(=O)Nc4ccc(OC)cc4)cc3)CC2)c1 [B1O030-01, 4-[4-[2-[2-(5-Ethoxypyridin-3-yl)ethynyl]benzoyl]piperazin-1-yl]-N-(4-methoxyphenyl)benzamide] |  |  |  | ASMS ratio (%) n = 1 [1]: 1.8%; ASMS ratio (%) n = 2 [1]: −2.0%
CCOc1cccc(-c2ccc(CN3CCN(c4ccc(C(=O)NS(=O)(=O)CCC(F)(F)F)nn4)CC3)cc2F)c1 [B2N077-01, 6-[4-[[4-(3-Ethoxyphenyl)-3-fluorophenyl]methyl]piperazin-1-yl]-N-(3,3,3-trifluoropropylsulfonyl)pyridazine-3-carboxamide] | 0.0% | 0.0% |  | 
CCOc1cncc(C#Cc2ccccc2C(=O)N2CCN(c3ccc(C(=O)NS(=O)(=O)CC45CC6CC(CC(C6)C4)C5)nn3)CC2)c1 [B2A008-01, N-(1-Adamantylmethylsulfonyl)-6-[4-[2-[2-(5-ethoxypyridin-3-yl)ethynyl]benzoyl]piperazin-1-yl]pyridazine-3-carboxamide] |  |  | 7.2% | ASMS ratio (%) n = 1 (AS-MS, mixture library, Bcl-2): 3.1%
CCOc1cccc(-c2ccc(CN3CCN(c4ccc(C(=O)NS(=O)(=O)CC56CC7CC(CC(C7)C5)C6)cc4)CC3)c(OC)c2)c1 [B2A053-01, N-(1-Adamantylmethylsulfonyl)-4-[4-[[4-(3-ethoxyphenyl)-2-methoxyphenyl]methyl]piperazin-1-yl]benzamide] |  |  | 0.0% | ASMS ratio (%) n = 1 (AS-MS, mixture library, Bcl-2): 0.0%
